The nature of data set [1]: Ultrasound-triggered drug release from P-triblock P-105 micelles, real-time fluorescence detection. It counts as physicochemical. Particulars: for Drug release: 10% P-triblock P-105 micelles, 37° C.; for Drug release (mean and s.d.): 10% P-triblock. The source says:
A custom ultrasonic exposure chamber with real-time fluorescence detection was used to measure acoustically-triggered drug release from P-triblock PLURONIC P-105 micelles under continuous wave (CW) or pulsed ultrasound in the frequency range of 20 kHz to 90 kHz. The measurements were based on the decrease in fluorescence intensity when drug was transferred from the micelle core to the aqueous environment. Two fluorescent drugs were used: doxorubicin (DOX) and its paramagnetic analogue, ruboxyl (Rb). P-triblock PLURONIC P-105 at various concentrations in aqueous solutions was used as a micelle-forming polymer. Drug release was highest at 20 kHz ultrasound and dropped with increasing ultrasonic frequency despite much higher power densities. […] The release of DOX was higher than that of Rb due to stronger interaction and deeper insertion of Rb into the core of the micelles. Drug release was higher at lower P-triblock concentrations, which presumably results from higher local drug concentrations in the core of P-triblock micelles when the number of micelles is low. At constant frequency, drug release increased with increasing power density. At constant power density and for pulse duration longer than 0.1 s, peak release under pulsed ultrasound was the same as stationary release under CW ultrasound.
Fluorescence of the drug was excited at an excitation wavelength of 488 nm with an optical power of approximately 0.5 mW in a 2 mm diameter beam. At this light intensity no photobleaching was observed, based on the constant level of drug fluorescence during continuing irradiation for 8 hours. The drug release was quantified by measuring the changes in fluorescence emissions before, during, and after the ultrasound exposure. A fiberoptic probe (a sheathed bundle of multimode glass fibers, 3 mm entrance diameter, 0.6 numerical aperture, and 90 cm in length) was used to collect the fluorescence emission. The light passed through a dielectric bandpass filter with a 35 nm bandwidth centered at 535 nm (Omega Optical Model 535DF35) to a sensitive silicon detector (EG&G Model 450-1). The filter effectively cuts off emissions below 500 nm, including any Rayleigh-scattered laser light. The detector signal was digitized using a 12-bit AID converter (National Instruments) and sent, along with the digitized monitor photodetector signal, to a Macintosh computer for storage and processing. The analog outputs of both photodetectors were also plotted on a stripchart recorder. The temperature of the ultrasonic exposure chamber was maintained at 37° C. by circulating thermostated water throughout the sonicating bath.
The experimental procedure is described below. First, fluorescence intensity of drug in phosphate buffered saline, PBS (FPBS) was measured; then, without any changes in the experimental setup, the PBS solution was carefully removed and replaced with the drug solution in P-triblock micelles. […] The base fluorescence of the micellar solution (Fmic) was measured, after which CW or pulsed ultrasound was turned on. During the “ultrasound on” phase, fluorescence dropped as shown in FIG. 19 due to drug release from the hydrophobic core of micelles into the aqueous environment.
Digitized data were analyzed, to calculate the percentage of drug release from micelles. To reduce the noise, the data were Fourier transformed, and a small magnitude narrow band noise of unknown origin and its next three harmonics were filtered out. After Fourier filtering, the data were smoothed using a 10 point moving average. An example of the raw and filtered data is presented in FIG. 19 for DOX release from 10% P-triblock micelles.
The percent of drug release was calculated assuming that Fmic-FPBS corresponds to 100% drug release:
Release (%)=[(Fmic−Fus)/(Fmic−FPBS)]×100% (1)
where Fus is fluorescence during exposure to ultrasound. […]

Data set [2] can be described thus: Rb localization in P-triblock micelles and P-gel nanoparticles (EPR and fluorescence). The class given is physicochemical. Here is the method: A dry powder of the EPR probe (16-DS) was incubated with unstabilized or stabilized micellar solutions of P-triblock for 15 mm under constant shaking. Unsolubilized probe was removed by centrifugation. The concentration of a solubilized probe was measured by the EPR. The same technique of probe introduction was used for pyrene. Water solubility of 16-DS or pyrene is very low and can be neglected. Dissolved probes are associated with P-triblock molecules and thus reflect the loading capacity, dynamics and environment of the latter. For a fluorescent drug, Rb, the same concentration of Rb (20 μg/ml) was introduced into non-stabilized and stabilized micellar P-triblock solutions at 37° C. from a stock solution. Because fluorescence of Rb within P-triblock micelles is much higher than outside micelles, the fraction of the drug within micelles can be estimated as
where Fmes is a measured fluorescence intensity, Fm is Rb fluorescence intensity when all the drug is localized in the hydrophobic core of micelles (measured in a 20% P-triblock solution at 37° C.), Fs is fluorescence intensity in non-micellar solutions (i.e., in PBS), and am is the fraction of the drug located in the hydrophobic core of micelles.
Rb was used as a spin- and fluorescent probe to monitor drug distribution in P-triblock micelles and P-gel nanoparticles.
The anthraquinone part of Rb molecule is inherently fluorescent. Rb fluorescence is quenched in collisions with water molecules; when Rb molecules are screened from collisions with water, theft fluorescence increases manifold.

Data set [3] relates to blood proteins (albumin, fibrinogen). The settings on record: reported elsewhere [82]; cited from earlier work.

Where “and” joins values, the source holds several entries; their conditions need not be identical. Identical values can stand only once.

As for `COc1cccc2c1C(=O)c1c(O)c3c(c(O)c1C2=O)C[C@@](O)(C(=O)CO)C[C@@H]3O[C@H]1C[C@H](N)[C@H](O)[C@H](C)O1` [DOX, doxorubicin], the Drug release in data set [1] (20 kHz, 0.033 W/cm^2) turned out to be 4.6 ± 0.5%; in data set [1] (20 kHz, 0.047 W/cm^2), 6.5 ± 1.1%; in data set [1] (20 kHz, 0.058 W/cm^2) it was 9.2 ± 0.56%; in data set [1] (67 kHz, 0.15 W/cm^2) it was 0%; in data set [1] (67 kHz, CW, 1.35 W/cm^2), 5.4 ± 2.3%; in data set [1] (67 kHz, CW, 1.66 W/cm^2) it was 8.1 ± 2.1%. The Drug release in data set [1] (67 kHz, CW, 2.8 W/cm^2) amounted to 10.7 ± 0.8%. Also, the “Drug release (mean and s.d.)” value in data set [1] (drug concentration 30 μg/ml, 67 kHz, 2.8 W/cm^2) is reported as 5.5%±1%; in data set [1] (drug concentration 40 μg/ml, 67 kHz, 2.8 W/cm^2) it was 10%±1%.
`COc1cccc2c1C(=O)c1c(O)c3c(c(O)c1C2=O)C[C@@](O)(/C(C)=N/N=C1CC(C)(C)N(O)C(C)(C)C1)C[C@@H]3O[C@H]1C[C@H](N)[C@H](O)[C@H](C)O1.Cl` [Rb, Ruboxyl]: the Drug release in data set [1] (67 kHz, CW, 1.35 W/cm^2) was 0.8 ± 0.25%; in data set [1] (67 kHz, CW, 1.66 W/cm^2), 3.2 ± 0.9%; in data set [1] (67 kHz, CW, 2.8 W/cm^2), 5.5% and 5.5 ± 1.5%. Further, the “Drug Release from P-triblock Micelles” value in data set [1] (20 kHz, 0.021 W/cm^2) is listed as “Traces”; in data set [1] (90 kHz, 1.66 W/cm^2), “traces”. For the same compound, the “overall fraction of the drug in the cores of P-gel nanoparticle” value in data set [2] (EPR, P-gel heated to 37° C.) came out at 73%. The “fraction of rotationally restricted molecules” value is 71% in data set [2] (EPR, room temperature, 10% P-triblock solution without a hydrogel) and 78% in data set [2] (EPR, room temperature, 10% P-triblock/1% poly(NiPAAm) P-gel nanoparticles). Besides, the “fraction of Rb molecules localized in the hydrophobic environment of micelle cores” value in data set [2] (fluorescence, room temperature, 10% P-triblock solutions) is listed as “about 70%”. The “adsorption or binding to blood proteins (albumin, fibrinogen)” value in data set [3] is “negligible”.

Source of the values: US6649702B1, “Stabilization and acoustic activation of polymeric micelles for drug delivery” (University of Utah Research Foundation, priority 1999, dated 2003).
